A short description of series [1]: Effect of gamma sterilization (25-35 kGy) on preservatives in buffer. The series is classed as physicochemical. Conditions: for Result post-gamma sterilization: gamma sterilization 25-35 kGy. The protocol: In a preferred embodiment, sterilization is performed by use of a gamma irradiation system having a Cobalt-60 source. The system used in the examples and data presented below is a dual source (i.e. two source racks), affording continuous irradiation and wet storage. The sterilization range was 25-35 kGy, set by adjusting the time of exposure to a constant radiation source. All sterilization dose ranges were confirmed by dosimeters.
Cf. Table 3. We examined a variety of preservatives for use in this buffer.

The subject of a further series is six different organisms. To be noted: over eight weeks, unsterile buffer.

Description for six different organisms: We tested the Buffers according to USP protocol for “Antimicrobial Preservatives Effectiveness” (United States Pharmacopeia, Volume XXIV, Microbiological Tests, Section (51) Antimicrobial Effectiveness Testing, pp. 1809-11, Official Jan. 1, 2000).

For the compound `CC(C)(C)CC(C)(C)c1ccc(OCCOCC[N+](C)(C)Cc2ccccc2)cc1` [Benzethonium chloride], in series [1], the Result post-gamma sterilization result was “Acceptable”. Besides, the “effect on the final buffer formulation with regard to pH level, stability, and cosmetic factors” value in series [1] (gamma sterilization cycle) is reported as “minimal effect”. For the same compound, in the series with six different organisms, the “counts for five of the organisms” value is on record as “no counts” and the “log reduction for the sixth organism” value is given as > 3 log. As for `N=C(NCCCCCCNC(=N)NC(=N)Nc1ccc(Cl)cc1)NC(=N)Nc1ccc(Cl)cc1` [Chlorohexidine], the Result post-gamma sterilization result in series [1] was “Precipitated”. Still for that read-out and setting: with `Cl/C=C\C[N+]12CN3CN(CN(C3)C1)C2.[Cl-]` [Dowicil 200] the entry was “Acidified, drifted”; with `O=C1C(N(CO)C(=O)NCO)N(CO)C(=O)N1CO` (stereo not shown) [Germall II], “Strong acidification, evolved CO2”; with `COC(=O)c1ccc(O)cc1` [Methyl paraben], “Acidified”. On the same count and under the same terms, with `CCCOC(=O)c1ccc(O)cc1` [Propyl paraben] the entry was “Precipitated”; with Benzalkonium chloride, “Precipitated”.

(Values after US6846678B2, “Gamma sterilized buffer solutions for pH measurement” (Terumo Cardiovascular Systems, Co.-Tustin, priority 2002, dated 2005).)
